Measured values published in paper PMC6437697 (Journal of Medicinal Chemistry, 2019).

What was measured:
Test in all cases: KINOMEscan
Format in all cases: binding
Conditions in all cases: read-out: % control activity remaining
AXL = molecular target: T1, AXL (Homo sapiens, UniProt P30530)
T1 construct: purchased Eurofins DiscoverX KINOMEscan
T1 sequence (P30530 26-894): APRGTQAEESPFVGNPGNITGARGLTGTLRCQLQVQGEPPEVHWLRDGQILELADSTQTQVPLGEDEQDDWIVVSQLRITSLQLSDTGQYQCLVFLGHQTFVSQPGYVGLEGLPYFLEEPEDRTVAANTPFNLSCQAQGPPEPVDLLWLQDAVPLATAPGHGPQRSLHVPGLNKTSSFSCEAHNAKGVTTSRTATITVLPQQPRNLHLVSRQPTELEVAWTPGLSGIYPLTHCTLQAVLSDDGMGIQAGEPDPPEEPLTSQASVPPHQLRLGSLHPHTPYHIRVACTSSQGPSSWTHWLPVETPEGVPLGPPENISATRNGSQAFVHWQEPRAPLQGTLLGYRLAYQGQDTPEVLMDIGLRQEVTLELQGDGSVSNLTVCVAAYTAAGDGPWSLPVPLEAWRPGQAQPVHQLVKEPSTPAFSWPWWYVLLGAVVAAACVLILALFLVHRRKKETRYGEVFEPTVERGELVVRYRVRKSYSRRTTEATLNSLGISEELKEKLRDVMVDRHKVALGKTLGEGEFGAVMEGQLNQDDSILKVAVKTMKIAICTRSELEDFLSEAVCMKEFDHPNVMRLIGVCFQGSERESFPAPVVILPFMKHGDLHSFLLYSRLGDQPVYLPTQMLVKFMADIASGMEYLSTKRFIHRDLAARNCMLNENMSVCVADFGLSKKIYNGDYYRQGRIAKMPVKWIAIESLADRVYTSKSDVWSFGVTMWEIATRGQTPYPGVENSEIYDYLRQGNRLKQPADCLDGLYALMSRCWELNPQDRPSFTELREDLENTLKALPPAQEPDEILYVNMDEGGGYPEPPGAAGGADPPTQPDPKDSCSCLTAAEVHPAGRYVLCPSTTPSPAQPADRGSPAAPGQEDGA

NEK1 = molecular target: T2, NEK1 (Homo sapiens, UniProt Q96PY6)
T2 construct: purchased Eurofins DiscoverX KINOMEscan
T2 sequence (Q96PY6 1-1258): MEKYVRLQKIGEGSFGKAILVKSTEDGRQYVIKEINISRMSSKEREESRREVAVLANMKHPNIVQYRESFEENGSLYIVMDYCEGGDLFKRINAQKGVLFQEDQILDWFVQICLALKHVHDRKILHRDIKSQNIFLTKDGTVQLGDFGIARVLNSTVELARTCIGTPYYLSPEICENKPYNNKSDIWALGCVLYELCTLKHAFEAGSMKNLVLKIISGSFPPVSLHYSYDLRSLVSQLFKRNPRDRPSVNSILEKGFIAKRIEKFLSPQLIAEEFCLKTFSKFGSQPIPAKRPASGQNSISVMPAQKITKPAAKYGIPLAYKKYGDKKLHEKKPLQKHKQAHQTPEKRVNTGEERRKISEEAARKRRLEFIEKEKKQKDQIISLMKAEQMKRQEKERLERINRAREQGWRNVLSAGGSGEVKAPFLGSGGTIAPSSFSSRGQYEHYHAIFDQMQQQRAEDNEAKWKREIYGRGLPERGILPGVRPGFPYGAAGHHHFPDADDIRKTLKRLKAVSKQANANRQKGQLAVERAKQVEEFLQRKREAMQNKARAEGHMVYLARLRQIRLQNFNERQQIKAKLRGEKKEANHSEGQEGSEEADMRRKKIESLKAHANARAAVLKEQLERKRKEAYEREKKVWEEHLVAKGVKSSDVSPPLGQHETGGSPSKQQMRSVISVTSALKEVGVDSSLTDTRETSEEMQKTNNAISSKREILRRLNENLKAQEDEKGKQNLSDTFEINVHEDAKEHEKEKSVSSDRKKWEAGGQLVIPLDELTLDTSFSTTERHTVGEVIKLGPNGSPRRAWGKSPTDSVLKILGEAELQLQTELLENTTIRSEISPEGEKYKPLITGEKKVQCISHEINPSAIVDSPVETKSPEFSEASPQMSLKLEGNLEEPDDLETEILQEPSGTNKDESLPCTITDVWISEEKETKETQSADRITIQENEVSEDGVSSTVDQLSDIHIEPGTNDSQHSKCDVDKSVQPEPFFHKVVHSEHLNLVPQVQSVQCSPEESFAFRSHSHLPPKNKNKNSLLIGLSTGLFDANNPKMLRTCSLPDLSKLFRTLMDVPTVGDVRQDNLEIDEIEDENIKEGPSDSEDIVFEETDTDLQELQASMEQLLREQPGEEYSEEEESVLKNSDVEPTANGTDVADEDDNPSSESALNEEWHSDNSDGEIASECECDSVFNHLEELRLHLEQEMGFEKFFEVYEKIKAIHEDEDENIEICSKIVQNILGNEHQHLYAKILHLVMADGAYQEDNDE

NEK4 = molecular target: T3, NEK4 (Homo sapiens, UniProt P51957)
T3 construct: purchased Eurofins DiscoverX KINOMEscan
T3 sequence (P51957 whole entry): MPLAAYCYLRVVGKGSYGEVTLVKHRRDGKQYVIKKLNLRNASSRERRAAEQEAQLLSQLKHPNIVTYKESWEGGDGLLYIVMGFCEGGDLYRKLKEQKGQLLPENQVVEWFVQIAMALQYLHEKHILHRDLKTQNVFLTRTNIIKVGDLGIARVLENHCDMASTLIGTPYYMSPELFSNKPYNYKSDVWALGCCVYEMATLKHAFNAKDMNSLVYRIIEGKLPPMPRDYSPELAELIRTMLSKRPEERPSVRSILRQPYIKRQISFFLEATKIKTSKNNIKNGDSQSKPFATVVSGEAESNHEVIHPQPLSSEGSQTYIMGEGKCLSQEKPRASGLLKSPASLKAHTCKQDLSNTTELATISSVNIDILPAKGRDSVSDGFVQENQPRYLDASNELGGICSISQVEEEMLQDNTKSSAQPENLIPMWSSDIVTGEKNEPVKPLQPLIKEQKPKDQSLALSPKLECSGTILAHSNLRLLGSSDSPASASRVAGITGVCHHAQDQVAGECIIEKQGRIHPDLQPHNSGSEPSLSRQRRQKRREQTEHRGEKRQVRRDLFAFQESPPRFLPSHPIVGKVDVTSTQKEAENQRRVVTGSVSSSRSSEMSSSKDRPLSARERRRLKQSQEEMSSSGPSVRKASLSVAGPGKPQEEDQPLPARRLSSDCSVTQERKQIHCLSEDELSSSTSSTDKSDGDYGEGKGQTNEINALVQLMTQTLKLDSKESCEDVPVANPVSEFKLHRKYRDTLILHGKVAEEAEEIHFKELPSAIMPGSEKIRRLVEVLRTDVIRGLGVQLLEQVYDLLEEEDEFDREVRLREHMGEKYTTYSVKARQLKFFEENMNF

ZAP70 = molecular target: T4, ZAP70 (Homo sapiens, UniProt P43403)
T4 construct: purchased Eurofins DiscoverX KINOMEscan
T4 sequence (P43403 1-619): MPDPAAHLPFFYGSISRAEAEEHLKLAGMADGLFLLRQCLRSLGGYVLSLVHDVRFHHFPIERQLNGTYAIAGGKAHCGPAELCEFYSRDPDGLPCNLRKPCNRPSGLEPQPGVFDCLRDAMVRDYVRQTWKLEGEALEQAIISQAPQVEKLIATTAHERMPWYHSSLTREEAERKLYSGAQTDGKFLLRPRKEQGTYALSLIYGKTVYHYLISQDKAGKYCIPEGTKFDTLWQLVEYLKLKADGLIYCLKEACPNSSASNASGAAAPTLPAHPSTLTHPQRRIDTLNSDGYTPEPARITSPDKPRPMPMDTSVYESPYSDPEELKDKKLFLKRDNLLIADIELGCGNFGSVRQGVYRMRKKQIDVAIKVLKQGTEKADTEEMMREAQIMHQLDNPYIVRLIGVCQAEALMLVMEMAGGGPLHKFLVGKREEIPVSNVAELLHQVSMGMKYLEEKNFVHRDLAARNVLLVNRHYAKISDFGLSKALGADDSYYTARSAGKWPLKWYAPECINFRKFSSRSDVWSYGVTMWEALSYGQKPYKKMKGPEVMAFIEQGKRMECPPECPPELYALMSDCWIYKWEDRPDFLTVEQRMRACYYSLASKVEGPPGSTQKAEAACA

| Structure (SMILES) | remaining binding at 1 µM (AXL) | remaining binding at 1 µM (NEK1) | remaining binding at 1 µM (NEK4) | remaining binding at 1 µM (ZAP70) |
| --- | --- | --- | --- | --- |
| CN1CCC(CNc2cc(Cl)nn3c(-c4cc5nc(Nc6ccccc6)[nH]c5cc4F)cnc23)CC1 [compound 31, 6-Chloro-3-(6-fluoro-2-(phenylamino)-1H-benzo[d]imidazol-5-yl)-N-((1-methylpiperidin-4-yl)methyl)imidazo[1,2-b]pyridazin-8-amine] | 99% | 96% | 95% | 83% |
| O=C(CN1CCOCC1)N[C@H]1CC[C@H](Nc2cc(Cl)nn3c(-c4ccc5[nH]ncc5c4)cnc23)CC1 [compound 26] | 88% | 92% | 100% | 100% |
| Clc1cc(NCC2CC2)c2ncc(-c3ccc4[nH]ncc4c3)n2n1 [compound 2, 6-Chloro-N-(cyclopropylmethyl)-3-(1H-indazol-5-yl)imidazo[1,2-b]pyridazin-8-amine] | 84% | 84% | 99% | 84% |
